This note sets out measurements from publication PMC7023064, “Design, Synthesis, and Evaluation of Novel 2-Methoxyestradiol Derivatives as Apoptotic Inducers through an Intrinsic Apoptosis Pathway” (Biomolecules, 2020).

Series [1] concerns human breast adenocarcinoma MCF-7 cell lines. As to the kind of experiment: MTT cytotoxicity assay, MCF-7. Format: cell-based. The conditions noted are these: Homo sapiens, MCF7. The procedure: (§1) Human breast adenocarcinoma MCF-7 cell lines, human breast cancer MDA-MB-231 cell lines, and the normal human liver L-O2 cell lines were provided by Nanjing KeyGen Biotech Co. Ltd. (Nanjing, China). MCF-7 cells were cultured in a base medium (90% RPMI-1640 and 10% FBS) at 37 °C, 5% CO2 and a saturated humidity atmosphere. MDA-MB-231 cells were cultured in a base medium (90% […] and 10% FBS) at 37 °C, 5% CO2 and a saturated humidity atmosphere. L-O2 cells were cultured in a base medium (90% DMEM and 10% FBS) at 37 °C, 5% CO2 and a saturated humidity atmosphere.
(§2) The cytotoxicity of the tested compounds was determined using the 3-(4,5-dimethyl-2-thiazolyl)-2,5-diphenyl-2-H-tetrazolium bromide (MTT) assay. Cells were seeded in 96-well plates and incubated in a 5% CO2 incubator at 37 °C. When the cells adhered, compounds at different concentrations were added to every well. After incubation for another 72 h, MTT solution (5 mg/mL) was added into each well and cells were incubated for an additional 4 h. The viable cells were stained with MTT and scanned with an electrophotometer at 570 nm. Each concentration treatment was done in triplicate wells. The half maximal inhibitory concentration (IC50) values were estimated by fitting the inhibition data to a dose-dependent curve using a logistic derivative equation.

The test system of series [2] is normal human liver L-O2 cell lines. As to the kind of experiment: MTT cytotoxicity assay, L-O2. Format: cell-based. The conditions noted are these: mean ± SD of three experiments, No = No inhibition detected; for IC50: Homo sapiens, L02, 72 h; for IC50 L-O2: 72 h. The procedure: as §1, §2
Series [3] concerns human breast cancer MDA-MB-231 cell lines. As to the kind of experiment: MTT cytotoxicity assay, MDA-MB-231. Format: cell-based. The settings on record: Homo sapiens, MDA-MB-231, 72 h, mean ± SD of three experiments. As to the method: as §1, §2
For series [4], the system named is MCF-7 and MDA-MB-231 cell lines. As to the kind of experiment: MTT assay, summary over tested tumor cells. The conditions noted are these: for IC50: Homo sapiens, MCF-7 and MDA-MB-231, read-out: IC50, anti-proliferative activity against tested tumor cells. Format: cell-based, human. The procedure: as §1, §2
[5] abbreviates: MTT, 72 h, mean ± SD of three experiments, read-out: IC50 MCF-7.
The mark [6] stands for this setting: Table 2, mean ± SD of three experiments, read-out: IC50 for MCF-7.
Where [7] appears, read: pIC50 = −log(IC50), read-out: pIC50 for MCF-7 (converted).

Structures are written as SMILES. Like-named read-outs stand apart in the source and are kept apart here.

Compound `COc1cc2c(cc1O)CC[C@@H]1[C@@H]2CC[C@]2(C)[C@@H](OCCCCCCn3c(=O)ccn([C@@H]4O[C@H](CO)[C@@H](O)[C@H]4O)c3=O)CC[C@@H]12` [Compound 10, 17 β-[6-(1-β-D-Ribofuranosyluracil-3-yl)-Hexyloxy]-2-Methoxy-Estra-1,3,5(10)-Triene-3-ol] displayed a melting point of 79 to 81 °C. Also, the IC50 in series [1] (setting [5]) amounted to 16.7 ± 0.3 µM. Also, the IC50 in series [1] (setting [6]) stood at 16.7 ± 0.3 µM. For the same compound, the IC50 in series [1] (setting [7]) was 16.6 µM. In addition, the IC50 in series [2] is 35.2 ± 0.42 µM. In series [3], this compound came in with an IC50 of 13.2 ± 1.09 µM. Further, the IC50 in series [4] fell in the range of 3.89 to 16.7 µM.

`COc1cc2c(cc1O)CC[C@@H]1[C@@H]2CC[C@]2(C)[C@@H](OCCCCCCCCn3ccc(=O)n(CCCCCCCCO[C@H]4CC[C@H]5[C@@H]6CCc7cc(O)c(OC)cc7[C@H]6CC[C@]45C)c3=O)CC[C@@H]12` [Compound 14b, 1,3-Bis-{8-[2-Methoxy-3-Hydroxy-Estra-1,3,5(10)-Triene-17β-yl-Oxy]-Octyl}-Uracil] registered a melting point of 73 to 75 °C. The IC50 in series [1] (setting [5]) is greater than 100 µM. The IC50 in series [1] (setting [6]) was greater than 100 µM. Also, the IC50 in series [1] (setting [7]) is greater than 100 µM. Besides, the “IC50 L-O2” value in series [2] is given as “No”. In series [3], this compound showed an IC50 greater than 100 µM.

`COc1cc2c(cc1O)CC[C@@H]1[C@@H]2CC[C@]2(C)[C@@H](OCCCCCCCCn3cc(C)c(=O)n(CCCCCCCCO[C@H]4CC[C@H]5[C@@H]6CCc7cc(O)c(OC)cc7[C@H]6CC[C@]45C)c3=O)CC[C@@H]12` [Compound 15b, 1,3-bis-{8-[2-Methoxy-3-Hydroxy-Estra-1,3,5(10)-Triene-17β-yl-oxy]-Octyl}-5-Methyl-Uracil] had a melting point of 73 to 75 °C. Besides, the IC50 in series [1] (setting [5]) was greater than 100 µM. In series [1] (setting [6]), the IC50 was greater than 100 µM. The IC50 in series [1] (setting [7]) was greater than 100 µM. The “IC50 L-O2” value in series [2] is on record as “No”. Besides, in series [3], the IC50 was greater than 100 µM.

In turn, `COc1cc2c(cc1OCCCCCCn1c(=O)ccn([C@@H]3O[C@H](CO)[C@@H](O)[C@H]3O)c1=O)CC[C@@H]1[C@@H]2CC[C@]2(C)[C@@H](O)CC[C@@H]12` [Compound 18, 3-[6-(1-β-D-Ribofuranosyluracil-3-yl)-Hexyloxy]-2-Methoxy-Estra-1,3,5(10)-Triene-17β-ol] yielded a melting point of 99 to 100 °C. Also, in series [1] (setting [5]), the IC50 came to 6.21 ± 0.37 µM. The IC50 in series [1] (setting [6]) was found to be 6.21 ± 0.37 µM. Besides, the IC50 in series [1] (setting [7]) was 6.17 µM. Also, the IC50 in series [2] stood at 21.3 ± 0.66 µM. Besides, the IC50 in series [3] was determined as 3.89 ± 0.36 µM. Besides, in series [4], the IC50 was in the range of 3.89 to 16.7 µM.

`COc1cc2c(cc1OCCCCCCCCn1c(=O)ccn([C@@H]3O[C@H](CO)[C@@H](O)[C@H]3O)c1=O)CC[C@@H]1[C@@H]2CC[C@]2(C)[C@@H](O)CC[C@@H]12` [Compound 19, 3-[8-(1-β-D-Ribofuranosyluracil-3-yl)-Octyloxy]-2-Methoxy-Estra-1,3,5(10)-Triene-17β-ol] registered a melting point of 93 to 95 °C. The IC50 in series [1] (setting [5]) was determined as 7.87 ± 0.42 µM. For the same compound, in series [1] (setting [6]), the IC50 turned out to be 7.87 ± 0.42 µM. In addition, the IC50 in series [1] (setting [7]) is 7.94 µM. The same compound returned an IC50 in series [2] of 32.8 ± 0.65 µM. This compound also had an IC50 in series [3] of 10.44 ± 0.07 µM. Besides, the IC50 in series [4] lay in the range of 3.89 to 16.7 µM.

On to `COc1cc2c(cc1OCCCCCCn1ccc(=O)n(CCCCCCOc3cc4c(cc3OC)[C@H]3CC[C@]5(C)[C@@H](O)CC[C@H]5[C@@H]3CC4)c1=O)CC[C@@H]1[C@@H]2CC[C@]2(C)[C@@H](O)CC[C@@H]12` [Compound 20b, 1,3-Bis-{6-[2-Methoxy-17β-Hydroxy-Estra-1,3,5(10)-Triene-3-yl-Oxy]-Hexyl}-Uracil], for which the melting point is 93 to 94 °C. Besides, the IC50 in series [1] (setting [5]) was greater than 100 µM. Besides, the IC50 in series [1] (setting [6]) was greater than 100 µM. In addition, the IC50 in series [1] (setting [7]) is greater than 100 µM. Besides, the “IC50 L-O2” value in series [2] is listed as “No”. Moreover, the IC50 in series [3] was greater than 100 µM.

The compound `COc1cc2c(cc1OCCCCCCn1cc(C)c(=O)n(CCCCCCOc3cc4c(cc3OC)[C@H]3CC[C@]5(C)[C@@H](O)CC[C@H]5[C@@H]3CC4)c1=O)CC[C@@H]1[C@@H]2CC[C@]2(C)[C@@H](O)CC[C@@H]12` [Compound 21b, 1,3-bis-{6-[2-Methoxy-17β-Hydroxy-Estra-1,3,5(10)-Triene-3-yl-oxy]-Hexyl}-5-Methyl-Uracil] showed a melting point of 79 to 81 °C. Also, the IC50 in series [1] (setting [5]) was found to be 28.4 ± 1.76 µM. In series [1] (setting [6]), the IC50 amounted to 28.4 ± 1.76 µM. Moreover, the IC50 in series [1] (setting [7]) was 28.2 µM. This compound also yielded an IC50 in series [2] greater than 100 µM. Also, the IC50 in series [3] turned out to be 23.8 ± 1.45 µM. Also, in series [4], the IC50 is roughly 25 µM. Besides, in series [4] (MCF-7 and MDA-MB-231 vs L-O2), the “selectivity towards cancerous cell lines vs healthy cell line” value is given as “about 4 fold”.

In turn, `COc1cc2c(cc1OCCCCCCCCn1ccc(=O)n(CCCCCCCCOc3cc4c(cc3OC)[C@H]3CC[C@]5(C)[C@@H](O)CC[C@H]5[C@@H]3CC4)c1=O)CC[C@@H]1[C@@H]2CC[C@]2(C)[C@@H](O)CC[C@@H]12` [Compound 22b, 1,3-Bis-{8-[2-Methoxy-17β-Hydroxy-Estra-1,3,5(10)-Triene-3-yl-Oxy]-Octyl}-Uracil] displayed a melting point of 74 to 76 °C. Besides, in series [1] (setting [5]), the IC50 was greater than 100 µM. Besides, in series [1] (setting [6]), the IC50 was greater than 100 µM. Further, the IC50 in series [1] (setting [7]) is greater than 100 µM. Also, the “IC50 L-O2” value in series [2] is given as “No”. The IC50 in series [3] was greater than 100 µM.

Consider `COc1cc2c(cc1OCCCCCCCCn1cc(C)c(=O)n(CCCCCCCCOc3cc4c(cc3OC)[C@H]3CC[C@]5(C)[C@@H](O)CC[C@H]5[C@@H]3CC4)c1=O)CC[C@@H]1[C@@H]2CC[C@]2(C)[C@@H](O)CC[C@@H]12` [Compound 23b, 1,3-bis-{8-[2-Methoxy-17β-Hydroxy-Estra-1,3,5(10)-Triene-3-yl-Oxy]-octyl}-5-Methyl-Uracil], for which the melting point lay within 75 to 76 °C. Besides, the IC50 in series [1] (setting [5]) is greater than 100 µM. Also, the IC50 in series [1] (setting [6]) is greater than 100 µM. Also, the IC50 in series [1] (setting [7]) is greater than 100 µM. In series [2], the “IC50 L-O2” value was “No”. In series [3], this compound gave an IC50 greater than 100 µM.
